Data reported in patent US20240294517A1, “2-[3-[1 [(QUINAZOLIN-4-YL)AMINO]ETHYL]PYRAZIN-2-YL]THIAZOLE-5-CARBONITRILE DERIVATIVES AND SIMILAR COMPOUNDS AS PESTICIDES” (SYNGENTA CROP PROTECTION AG, priority 2021, published 2024).

How the values were obtained:
Assay type in all cases: in vivo
Chilo suppressalis = assay: Activity against Chilo suppressalis (striped rice stemborer), artificial diet in 24-well plates; conditions: 144 h, application rate 200 ppm, L2 larvae, 6 days after infestation
Protocol: 24-well microtiter plates with artificial diet were treated with aqueous test solutions prepared from 10′000 ppm DMSO stock solutions by pipetting. After drying, the plates were infested with L2 larvae (6-8 per well). The samples were assessed for mortality, anti-feeding effect, and growth inhibition in comparison to untreated samples 6 days after infestation. Control of Chilo suppressalis by a test sample is given when at least one of the categories mortality, anti-feedant effect, and growth inhibition is higher than the untreated sample.

Diabrotica balteata = assay: Activity against Diabrotica balteata (corn root worm), sprayed maize sprouts; conditions: for percent effect (mortality or growth inhibition) at 200 ppm: 96 h, application rate 200 ppm, L2 larvae, 4 days after infestation, read-out: effect in at least one of the two categories (mortality or growth inhibition); for mortality at 3.125 ppm: concentration 3.125 ppm
Protocol: Maize sprouts placed onto an agar layer in 24-well microtiter plates were treated with aqueous test solutions prepared from 10′000 ppm DMSO stock solutions by spraying. After drying, the plates were infested with L2 larvae (6 to 10 per well). The samples were assessed for mortality and growth inhibition in comparison to untreated samples 4 days after infestation.
(§1) Activity of compound P5 according to the preparatory examples and of compound P.118 from WO 21/083936 against Plutella xylostella ([…]) and Diabrotica balteata (Example B2) is summarized in Table B9.

Plutella xylostella = assay: Activity against Plutella xylostella (diamond back moth), artificial diet; conditions: for percent effect (mortality or growth inhibition) at 200 ppm: 192 h, application rate 200 ppm, eggs, 8 days after infestation, read-out: effect in at least one of the two categories (mortality or growth inhibition); for mortality at 12.5 ppm: concentration 12.5 ppm
Protocol: 24-well microtiter plates with artificial diet were treated with aqueous test solutions prepared from 10′000 ppm DMSO stock solutions by pipetting. After drying, Plutella eggs were pipetted through a plastic stencil onto a gel blotting paper and the plate was closed with it. The samples were assessed for mortality and growth inhibition in comparison to untreated samples 8 days after infestation.
as §1

Euschistus heros = assay: Activity against Euschistus heros (neotropical brown stink bug), sprayed soybean leaves; conditions: 120 h, application rate 200 ppm, N2 nymphs, 5 days after infestation, read-out: effect in at least one of the two categories (mortality or growth inhibition)
Protocol: Soybean leaves on agar in 24-well microtiter plates were sprayed with aqueous test solutions prepared from 10′000 ppm DMSO stock solutions. After drying the leaves were infested with N2 nymphs. The samples were assessed for mortality and growth inhibition in comparison to untreated samples 5 days after infestation.

Spodoptera littoralis = assay: Activity against Spodoptera littoralis (Egyptian cotton leaf worm), sprayed cotton leaf discs; conditions: foliar, 72 h, application rate 200 ppm, L1 larvae, 3 days after infestation
Protocol: Cotton leaf discs were placed onto agar in 24-well microtiter plates and sprayed with aqueous test solutions prepared from 10′000 ppm DMSO stock solutions. After drying the leaf discs were infested with five L1 larvae. The samples were assessed for mortality, anti-feeding effect, and growth inhibition in comparison to untreated samples 3 days after infestation. Control of Spodoptera littoralis by a test sample is given when at least one of the categories mortality, anti-feedant effect, and growth inhibition is higher than the untreated sample.

| Structure (SMILES) | percent control (mortality, anti-feedant effect or growth inhibition) at 200 ppm (Chilo suppressalis) | percent effect (mortality or growth inhibition) at 200 ppm (Diabrotica balteata) | percent effect (mortality or growth inhibition) at 200 ppm (Plutella xylostella) | percent effect (mortality or growth inhibition) at 200 ppm (Euschistus heros) | percent control (mortality, anti-feedant effect or growth inhibition) at 200 ppm (Spodoptera littoralis) | mortality at 3.125 ppm (Diabrotica balteata) | mortality at 12.5 ppm (Plutella xylostella) |
| --- | --- | --- | --- | --- | --- | --- | --- |
| CC(Nc1ncnc2c(C(F)(F)F)cc(C(F)(F)F)cc12)c1nccnc1-c1ncc(Br)s1 (stereo not shown) [P8, N-[1-[3-(5-bromothiazol-2-yl)pyrazin-2-yl]ethyl]-6,8-bis(trifluoromethyl)quinazolin-4-amine] | ≥ 80% | ≥ 80% | ≥ 80% |  |  |  |  |
| C[C@H](Nc1ncnc2c(C(F)(F)F)cc(Cl)cc12)c1ncnn1-c1ncc(C#N)s1 [P10, 2-[5-[(1S)-1-[[6-chloro-8-(trifluoromethyl)quinazolin-4-yl]amino]ethyl]-1,2,4-triazol-1-yl]thiazole-5-carbonitrile] | ≥ 80% | ≥ 80% | ≥ 80% | ≥ 80% | ≥ 80% |  |  |
| CC(Nc1ncnc2c(Br)cc(Br)cc12)c1nccnc1-c1ncsn1 (stereo not shown) [P16, 6,8-dibromo-N-[1-[3-(1,2,4-thiadiazol-3-yl)pyrazin-2-yl]ethyl]quinazolin-4-amine] |  | ≥ 80% | ≥ 80% |  | ≥ 80% |  |  |
| CC(Nc1ncnc2c(C(F)(F)F)cc(Cl)cc12)c1nccnc1-c1ccc(C#N)cn1 (stereo not shown) [P.118, reference compound] |  |  |  |  |  | 0% | 0% |
| CC(Nc1ncnc2c(C(F)(F)F)cc(Cl)cc12)c1nccnc1-c1ncc(Br)s1 (stereo not shown) [P6, N-[1-[3-(5-bromothiazol-2-yl)pyrazin-2-yl]ethyl]-6-chloro-8-(trifluoromethyl)quinazolin-4-amine] | ≥ 80% | ≥ 80% |  |  |  |  |  |
| CC(Nc1ncnc2c(Cl)cc(C(F)(F)F)cc12)c1nccnc1-c1ncsn1 (stereo not shown) [P18, 8-chloro-N-[1-[3-(1,2,4-thiadiazol-3-yl)pyrazin-2-yl]ethyl]-6-(trifluoromethyl)quinazolin-4-amine] |  | ≥ 80% | ≥ 80% |  |  |  |  |
| C[C@H](Nc1nc(Cl)nc2c(Br)cc(C(F)(F)F)cc12)c1ncnn1-c1ncc(C#N)s1 [P9, 2-[5-[(1S)-1-[[8-bromo-2-chloro-6-(trifluoromethyl)quinazolin-4-yl]amino]ethyl]-1,2,4-triazol-1-yl]thiazole-5-carbonitrile] | ≥ 80% | ≥ 80% | ≥ 80% |  |  |  |  |
| C[C@@H](c1ncnn1-c1ncc(C#N)s1)N(C)c1ncnc2c(C(F)(F)F)cc(Cl)cc12 [P11, 2-[5-[(1S)-1-[[6-chloro-8-(trifluoromethyl)quinazolin-4-yl]-methyl-amino]ethyl]-1,2,4-triazol-1-yl]thiazole-5-carbonitrile] | ≥ 80% | ≥ 80% | ≥ 80% |  | ≥ 80% |  |  |
| C[C@H](Nc1ncnc2c(Cl)cc(S(=O)(=O)C(F)(F)F)cc12)c1ncnn1-c1ncc(C#N)s1 [P22, 2-[5-[(1S)-1-[[8-chloro-6-(trifluoromethylsulfonyl)quinazolin-4-yl]amino]ethyl]-1,2,4-triazol-1-yl]thiazole-5-carbonitrile] | ≥ 80% | ≥ 80% | ≥ 80% |  | ≥ 80% |  |  |
| C[C@H](Nc1nc(=O)[nH]c2c(Br)cc(C(F)(F)F)cc12)c1ncnn1-c1ncc(C#N)s1 [P2, 2-[5-[(1S)-1-[[8-bromo-2-oxo-6-(trifluoromethyl)-1H-quinazolin-4-yl]amino]ethyl]-1,2,4-triazol-1-yl]thiazole-5-carbonitrile] | ≥ 80% |  | ≥ 80% |  | ≥ 80% |  |  |
| CC(Nc1ncnc2c(Cl)cc(C(F)(F)F)cc12)c1nccnc1-c1ncc(C#N)s1 (stereo not shown) [P12, 2-[3-[1-[[8-chloro-6-(trifluoromethyl)quinazolin-4-yl]amino]ethyl]pyrazin-2-yl]thiazole-5-carbonitrile] | ≥ 80% | ≥ 80% | ≥ 80% |  | ≥ 80% |  |  |
| CC(Nc1ncnc2c(C(F)(F)F)cc(Cl)cc12)c1nccnc1-c1ncc(C#N)s1 (stereo not shown) [P5, 2-[3-[1-[[6-chloro-8-(trifluoromethyl)quinazolin-4-yl]amino]ethyl]pyrazin-2-yl]thiazole-5-carbonitrile] | ≥ 80% | ≥ 80% | ≥ 80% |  | ≥ 80% | 100% | 50% |
| CC(Nc1ncnc2c(C(F)(F)F)cc(Cl)cc12)c1nccnc1-c1ncsn1 (stereo not shown) [P13, 6-chloro-N-[1-[3-(1,2,4-thiadiazol-3-yl)pyrazin-2-yl]ethyl]-8-(trifluoromethyl)quinazolin-4-amine] |  | ≥ 80% | ≥ 80% |  | ≥ 80% |  |  |
| CC(Nc1nc(=O)[nH]c2c(Br)cc(C(F)(F)F)cc12)c1nccnc1-c1ncc(Br)s1 (stereo not shown) [P4, 8-bromo-4-[1-[3-(5-bromothiazol-2-yl)pyrazin-2-yl]ethylamino]-6-(trifluoromethyl)-1H-quinazolin-2-one] | ≥ 80% | ≥ 80% | ≥ 80% |  |  |  |  |
| CC(Nc1nc(=O)[nH]c2c(Br)cc(C(F)(F)F)cc12)c1nccnc1-c1ncc(C#N)s1 (stereo not shown) [P1, 2-[3-[1-[[8-bromo-2-oxo-6-(trifluoromethyl)-1H-quinazolin-4-yl]amino]ethyl]pyrazin-2-yl]thiazole-5-carbonitrile] | ≥ 80% | ≥ 80% | ≥ 80% |  |  |  |  |
| CC(Nc1ncnc2c(Br)cc(Br)cc12)c1nccnc1-c1ncc(C#N)s1 (stereo not shown) [P19, 2-[3-[1-[(6,8-dibromoquinazolin-4-yl)amino]ethyl]pyrazin-2-yl]thiazole-5-carbonitrile] | ≥ 80% | ≥ 80% | ≥ 80% |  | ≥ 80% |  |  |
| CC(Nc1ncnc2c(C(F)(F)F)cc(C(F)(F)F)cc12)c1nccnc1-c1ncc(C#N)s1 (stereo not shown) [P7, 2-[3-[1-[[6,8-bis(trifluoromethyl)quinazolin-4-yl]amino]ethyl]pyrazin-2-yl]thiazole-5-carbonitrile] | ≥ 80% | ≥ 80% | ≥ 80% |  | ≥ 80% |  |  |
